The values that follow are results of earlier work, collected in patent publication US20250051594A1, “INKJET INK” (KYOCERA DOCUMENT SOLUTIONS INC., priority 2023, published 2025).

Molecules are shown by their SMILES. Read-outs that look alike come from different tables or passages of the source.

The conditions of the series: octanol/water partition coefficient of the organic solvent.

For the compound `COC(C)COC(C)COC(C)CO` (centres unmarked) [Tripropylene glycol monomethylether], the LogKow is given as −1.24.

For the compound `OCCOCCO` [Diethylene glycol], the LogKow is −1.47. As for `CCCOC(C)COC(C)CO` (centres unmarked) [Dipropylene glycol monopropylether], the LogKow is recorded as −1.53. Turning to `OCCOCCOCCO` [Triethylene glycol], the LogKow is −1.75. `COCCOCCOCCO` [Triethylene glycol monomethylether]: the LogKow is on record as −1.46. On to `OCC(O)CO` [Glycerin], for which the LogKow is −1.76. `CCCCOCCOCCOC` [Diethylene glycolbutylmethylether]: the LogKow was −1.20. In the case of `CCCCOCCOCC` [EBEE, ethylene glycol butylethylether], the LogKow was −1.88. For the same compound, under “listed as ethylene glycolbutylethylether”, the LogKow entry was “lower than −1.80”. With `OCCCO` [1,3-propanediol], the LogKow was −1.04.

Turning to `CCCCOCC(C)O` (centres unmarked) [Propylene glycol monobutylether], the LogKow is −1.36. `COCCOCCO` [Diethylene glycol monomethylether]: the LogKow was −1.18.

Take `CC(O)CO` (centres unmarked) [PG, propylene glycol]: the LogKow was −0.92. Besides, the LogKow entry (listed as propylene glycol) is “higher than −1.00”.
